Values of other authors in publication PMC9924909 (Brain, 2022).
Read-outs that look alike come from different tables or passages of the source.

Assays:
[1] = cited from earlier work
patients with GD3 = details: cited from earlier work

| Compound | distribution to the brain [1] | effect on neurological symptoms (patients with GD3) | effect on neurological symptoms (patients with GD3; listed as miglustat) |
| --- | --- | --- | --- |
| CCCCCCCC(=O)N[C@H](CN1CCCC1)[C@H](O)c1ccc2c(c1)OCCO2 [Eliglustat] | excluded from the brain | – | – |
| CCCCN1C[C@H](O)[C@@H](O)[C@H](O)[C@H]1CO [Miglustat] | partially distributed to the brain | ineffective for neurological symptoms | no clinical benefit |
